Six compounds from ChEMBL document CHEMBL5465560, “Selectivity Literature for EUbOPEN Chemogenomic Library” (2024) can be followed below.

Where only a bound is given, the exact number is not on record here.

A word on the IC50: it is the concentration needed to halve the response being measured.

Assay [1] concerns the target T1, Muscle, skeletal receptor tyrosine-protein kinase (Homo sapiens) (UniProt O15146).
T1 sequence (whole entry): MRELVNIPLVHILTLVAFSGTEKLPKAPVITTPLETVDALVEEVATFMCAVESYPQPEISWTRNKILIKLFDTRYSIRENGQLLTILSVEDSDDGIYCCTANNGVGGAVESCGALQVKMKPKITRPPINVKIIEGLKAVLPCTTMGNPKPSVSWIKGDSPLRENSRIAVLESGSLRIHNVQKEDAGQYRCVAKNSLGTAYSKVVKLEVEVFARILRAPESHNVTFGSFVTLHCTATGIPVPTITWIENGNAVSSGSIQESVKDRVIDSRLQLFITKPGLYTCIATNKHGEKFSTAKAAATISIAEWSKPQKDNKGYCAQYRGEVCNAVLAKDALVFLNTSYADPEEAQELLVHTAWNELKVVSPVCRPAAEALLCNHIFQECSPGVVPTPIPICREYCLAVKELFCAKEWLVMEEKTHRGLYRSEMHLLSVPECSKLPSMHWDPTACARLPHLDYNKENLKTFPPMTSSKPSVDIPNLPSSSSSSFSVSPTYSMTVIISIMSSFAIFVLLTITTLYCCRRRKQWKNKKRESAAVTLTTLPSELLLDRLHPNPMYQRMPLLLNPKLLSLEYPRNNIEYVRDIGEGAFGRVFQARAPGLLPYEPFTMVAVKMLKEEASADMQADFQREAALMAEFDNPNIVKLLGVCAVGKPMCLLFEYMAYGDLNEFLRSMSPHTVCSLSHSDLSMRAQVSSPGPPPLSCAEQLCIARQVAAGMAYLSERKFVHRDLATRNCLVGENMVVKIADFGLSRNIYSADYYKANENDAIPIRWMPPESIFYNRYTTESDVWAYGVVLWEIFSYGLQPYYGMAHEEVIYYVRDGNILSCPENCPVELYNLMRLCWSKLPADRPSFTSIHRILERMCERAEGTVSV
As to the kind of experiment: Selectivity interaction (Kinase panel (Z-LYTE Assay)) EUB0001632a MUSK. The settings on record: at 10 µM.

Assay [2] deals with Calcium/calmodulin-dependent protein kinase type II subunit delta (Homo sapiens) (UniProt Q13557). As to the kind of experiment: Selectivity interaction (ActivX KiNativ screen (kinase selectivity in THP-1 cell lysates)) EUB0000639a CAMK2D. The class given is subcellular. The note with it: lysate, at 1 µM.
In assay [3] the target is Microtubule-associated serine/threonine-protein kinase 1 (Homo sapiens) (UniProt Q9Y2H9). As to the kind of experiment: Selectivity interaction (ActivX KiNativ screen (kinase selectivity in THP-1 cell lysates)) EUB0000639a MAST1. The note with it: lysate. The class given is subcellular.
For assay [4], the target named is Ribosomal protein S6 kinase alpha-3 (Homo sapiens, UniProt P51812). In words: Selectivity interaction (ActivX KiNativ screen (kinase selectivity in THP-1 cell lysates)) EUB0000639a RPS6KA3. The class given is subcellular. The note with it: lysate, at 0.01 µM.
In assay [5] the target is T2, Mitogen-activated protein kinase 12 (Homo sapiens) (UniProt P53778).
T2 sequence (whole entry): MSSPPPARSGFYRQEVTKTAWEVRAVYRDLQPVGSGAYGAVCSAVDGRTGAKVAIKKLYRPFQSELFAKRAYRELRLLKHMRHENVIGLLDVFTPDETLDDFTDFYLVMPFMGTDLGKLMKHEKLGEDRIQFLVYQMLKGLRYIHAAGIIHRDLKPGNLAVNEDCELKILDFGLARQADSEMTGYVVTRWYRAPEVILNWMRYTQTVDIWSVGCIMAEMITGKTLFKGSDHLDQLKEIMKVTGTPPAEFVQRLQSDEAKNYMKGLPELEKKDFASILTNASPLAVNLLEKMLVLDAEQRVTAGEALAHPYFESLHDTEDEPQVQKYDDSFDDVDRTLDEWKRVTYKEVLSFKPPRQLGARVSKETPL
In words: Selectivity interaction (Millipore kinase profiler) EUB0000124b MAPK12. The note with it: at 10 µM.

Assay [6] addresses Cyclin-dependent kinase 1/cyclin B (Homo sapiens, UniProt P06493). In words: Selectivity interaction (Kinase panel (Enzyme activity assay)) EUB0000612a CDK1. In kind it is protein-complex assay.
In assay [7] the target is T3, Serine/threonine-protein kinase STK11 (Homo sapiens) (UniProt Q15831).
T3 sequence (whole entry): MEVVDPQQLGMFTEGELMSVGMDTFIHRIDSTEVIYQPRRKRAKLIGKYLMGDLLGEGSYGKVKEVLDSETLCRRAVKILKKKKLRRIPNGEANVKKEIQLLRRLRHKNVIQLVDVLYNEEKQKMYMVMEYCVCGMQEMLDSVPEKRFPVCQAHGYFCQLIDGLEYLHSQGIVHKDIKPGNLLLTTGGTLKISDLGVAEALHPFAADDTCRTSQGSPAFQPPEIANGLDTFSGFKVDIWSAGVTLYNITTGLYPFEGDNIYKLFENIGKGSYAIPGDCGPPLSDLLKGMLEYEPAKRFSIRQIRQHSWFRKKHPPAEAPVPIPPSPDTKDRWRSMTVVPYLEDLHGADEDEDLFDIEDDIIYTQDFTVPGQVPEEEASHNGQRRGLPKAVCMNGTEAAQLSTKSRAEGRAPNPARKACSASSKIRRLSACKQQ
As to the kind of experiment: Selectivity interaction (KinomeScan (DiscoverX)) EUB0001049a STK11. The note with it: at 1 µM.

For assay [8], the target named is T4, Interleukin-1 receptor-associated kinase 4 (Homo sapiens) (UniProt Q9NWZ3).
T4 sequence (whole entry): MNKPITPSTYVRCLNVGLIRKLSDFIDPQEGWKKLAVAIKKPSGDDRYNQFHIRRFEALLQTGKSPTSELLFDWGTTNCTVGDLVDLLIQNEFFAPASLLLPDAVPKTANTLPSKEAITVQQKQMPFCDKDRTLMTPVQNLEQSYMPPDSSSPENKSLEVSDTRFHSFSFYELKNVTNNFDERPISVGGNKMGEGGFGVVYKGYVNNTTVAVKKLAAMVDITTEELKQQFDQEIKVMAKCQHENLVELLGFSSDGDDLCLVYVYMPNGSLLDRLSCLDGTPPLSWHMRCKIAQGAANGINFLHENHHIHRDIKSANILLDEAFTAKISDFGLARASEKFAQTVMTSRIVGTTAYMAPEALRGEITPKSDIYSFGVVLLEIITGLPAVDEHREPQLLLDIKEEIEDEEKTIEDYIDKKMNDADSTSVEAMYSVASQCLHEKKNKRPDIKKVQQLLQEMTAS
In words: Selectivity interaction (KinomeScan (DiscoverX)) EUB0000618a IRAK4. The note with it: at 10 µM.

Microtubule-associated serine/threonine-protein kinase 1 (Homo sapiens), sequence (Q9Y2H9 whole entry, looked up): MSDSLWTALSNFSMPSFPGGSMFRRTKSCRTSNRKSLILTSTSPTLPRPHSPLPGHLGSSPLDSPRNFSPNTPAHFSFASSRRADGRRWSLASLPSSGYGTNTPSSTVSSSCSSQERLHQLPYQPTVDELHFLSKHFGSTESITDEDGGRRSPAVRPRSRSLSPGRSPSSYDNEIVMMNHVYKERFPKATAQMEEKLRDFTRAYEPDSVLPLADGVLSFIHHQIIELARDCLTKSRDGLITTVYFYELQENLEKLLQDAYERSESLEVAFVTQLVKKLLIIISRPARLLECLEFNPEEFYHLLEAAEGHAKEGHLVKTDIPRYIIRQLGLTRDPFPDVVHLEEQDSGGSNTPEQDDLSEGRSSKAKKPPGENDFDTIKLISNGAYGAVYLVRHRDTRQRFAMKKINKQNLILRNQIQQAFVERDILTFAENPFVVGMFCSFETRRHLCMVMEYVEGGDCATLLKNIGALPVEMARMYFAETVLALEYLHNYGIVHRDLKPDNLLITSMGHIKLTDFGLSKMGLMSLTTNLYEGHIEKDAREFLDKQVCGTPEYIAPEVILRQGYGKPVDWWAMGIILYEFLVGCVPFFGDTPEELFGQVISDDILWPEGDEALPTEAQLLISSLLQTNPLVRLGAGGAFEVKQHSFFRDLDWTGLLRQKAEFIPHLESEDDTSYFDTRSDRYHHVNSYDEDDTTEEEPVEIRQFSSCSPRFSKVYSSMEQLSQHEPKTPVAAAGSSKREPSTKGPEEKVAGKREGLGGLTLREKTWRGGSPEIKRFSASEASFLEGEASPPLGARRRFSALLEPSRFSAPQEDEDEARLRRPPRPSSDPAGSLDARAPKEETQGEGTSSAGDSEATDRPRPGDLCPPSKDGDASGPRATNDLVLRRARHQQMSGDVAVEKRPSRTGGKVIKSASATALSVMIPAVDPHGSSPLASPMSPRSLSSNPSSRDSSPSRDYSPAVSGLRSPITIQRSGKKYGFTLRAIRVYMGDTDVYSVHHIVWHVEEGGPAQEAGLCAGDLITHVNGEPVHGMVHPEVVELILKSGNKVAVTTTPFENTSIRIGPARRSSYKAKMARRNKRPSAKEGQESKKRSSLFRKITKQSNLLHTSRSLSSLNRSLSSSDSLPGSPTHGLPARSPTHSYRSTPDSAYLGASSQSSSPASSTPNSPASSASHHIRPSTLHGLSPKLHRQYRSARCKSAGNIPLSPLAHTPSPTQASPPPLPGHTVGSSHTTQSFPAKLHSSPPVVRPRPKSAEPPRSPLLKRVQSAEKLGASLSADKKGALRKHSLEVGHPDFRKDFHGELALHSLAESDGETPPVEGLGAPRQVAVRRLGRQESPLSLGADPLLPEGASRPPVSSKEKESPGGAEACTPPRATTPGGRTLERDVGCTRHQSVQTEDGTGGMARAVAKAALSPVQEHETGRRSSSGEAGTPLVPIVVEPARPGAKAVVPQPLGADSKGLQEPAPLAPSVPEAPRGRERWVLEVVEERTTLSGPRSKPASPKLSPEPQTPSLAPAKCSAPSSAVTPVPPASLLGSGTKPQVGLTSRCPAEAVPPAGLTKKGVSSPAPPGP
Ribosomal protein S6 kinase alpha-3, sequence (P51812 whole entry): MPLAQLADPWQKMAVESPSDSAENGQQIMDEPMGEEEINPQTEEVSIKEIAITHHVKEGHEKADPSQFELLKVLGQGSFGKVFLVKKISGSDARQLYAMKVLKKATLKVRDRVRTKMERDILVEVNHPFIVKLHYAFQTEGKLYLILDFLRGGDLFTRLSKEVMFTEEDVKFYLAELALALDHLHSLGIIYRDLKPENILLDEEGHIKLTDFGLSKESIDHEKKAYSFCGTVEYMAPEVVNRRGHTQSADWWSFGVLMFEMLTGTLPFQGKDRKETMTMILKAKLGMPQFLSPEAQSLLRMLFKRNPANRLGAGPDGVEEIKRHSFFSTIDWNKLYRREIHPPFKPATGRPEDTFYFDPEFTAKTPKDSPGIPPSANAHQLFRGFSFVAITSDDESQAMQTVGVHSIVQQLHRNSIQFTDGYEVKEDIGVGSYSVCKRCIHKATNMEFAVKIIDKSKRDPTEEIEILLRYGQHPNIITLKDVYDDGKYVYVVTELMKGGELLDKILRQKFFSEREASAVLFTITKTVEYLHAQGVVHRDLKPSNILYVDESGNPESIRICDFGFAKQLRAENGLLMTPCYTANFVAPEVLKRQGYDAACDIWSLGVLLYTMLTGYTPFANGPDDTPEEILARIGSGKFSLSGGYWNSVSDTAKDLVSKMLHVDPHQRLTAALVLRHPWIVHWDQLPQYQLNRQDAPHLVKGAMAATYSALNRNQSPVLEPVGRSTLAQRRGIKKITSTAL
Calcium/calmodulin-dependent protein kinase type II subunit delta (Homo sapiens), sequence (Q13557 whole entry): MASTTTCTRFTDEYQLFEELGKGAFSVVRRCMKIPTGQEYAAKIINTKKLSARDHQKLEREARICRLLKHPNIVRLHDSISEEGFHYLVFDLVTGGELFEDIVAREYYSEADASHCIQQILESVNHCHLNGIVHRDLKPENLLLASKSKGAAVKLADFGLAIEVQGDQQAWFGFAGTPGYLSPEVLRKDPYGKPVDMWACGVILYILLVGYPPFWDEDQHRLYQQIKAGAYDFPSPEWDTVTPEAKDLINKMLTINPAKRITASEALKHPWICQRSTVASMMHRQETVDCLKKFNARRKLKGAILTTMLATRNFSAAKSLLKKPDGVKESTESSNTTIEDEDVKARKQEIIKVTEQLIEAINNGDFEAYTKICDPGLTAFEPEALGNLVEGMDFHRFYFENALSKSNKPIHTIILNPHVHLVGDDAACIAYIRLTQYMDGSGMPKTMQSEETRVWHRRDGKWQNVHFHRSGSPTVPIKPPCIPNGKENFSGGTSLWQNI

In turn, `Cn1cc(-n2cnc3c(NCc4nc5cc(Cl)c(Cl)cc5[nH]4)nc(N4CCOCC4)nc32)cn1` had a % of control in assay [1] of 12.7%.

With `CC[C@@H]1[C@H](F)C(=O)N[C@@H]1COc1nccc2cc(C(N)=O)c(OC)cc12` [ZIMLOVISERTIB], the % of inhibition is 25.1% in assay [2]; -0.4% in assay [3] (at 0.01 µM); -2.4% in assay [3] (at 0.04 µM); -2.5% in assay [3] (at 0.2 µM); -1.4% in assay [3] (at 1 µM); -30.3% in assay [3] (at 5 µM). Further, in assay [4], the % of inhibition stood at 5%.

Compound `CC(=O)Nc1cccc(-n2c(=O)n(C3CC3)c(=O)c3c(Nc4ccc(I)cc4F)n(C)c(=O)c(C)c32)c1` returned a % of control in assay [5] of 97%.

Consider `CCc1cccc(CC)c1NC(=O)c1nn(C)c2c1CCc1cnc(Nc3ccc(C(=O)NC4CCN(C)CC4)cc3OC(F)(F)F)nc1-2`, for which the IC50 in assay [6] is more than 10 µM.

Compound `COc1cc(Nc2nc(C)cc(-c3cnn4nc(OC)ccc34)n2)cc(C(F)(F)F)c1` had a % of control in assay [7] of 100%.

`O[C@H]1CC[C@H](Nc2ncc3nc(Nc4c(F)cc(F)cc4F)n([C@H]4CCOC4)c3n2)CC1`: the % of control in assay [8] amounted to 94%.
